The test system of one assay is S. aureus. Nature of the assay: MIC against S. aureus strains and clinical isolates (broth microdilution). The class given is cell-based, Staphylococcus aureus. The protocol:
were tested against a collection of clinical isolates of S. aureus including strains that were multi-resistant to mupirocin and to other agents such as gentamicin and oxacillin.
The acetate and mupirocin salts of the MRS inhibitor compound 5 were tested against a collection of both low and high-level mupirocin resistant clinical isolates of S. aureus (Table 6).
The bacterial strains were tested for susceptibility to mupirocin and MRSi compound 2 using the broth microdilution method in accordance with NCCLS guideline to determine their MICs.
Briefly, the MIC and checkerboard titration assays were performed with strains in microtiter trays with cation-supplemented Mueller-Hinton broth (Difco). Inocula were prepared by suspending growth from blood agar plates in sterile saline to a density equivalent to that of a 0.5 McFarland standard and were diluted […] to produce a final inoculum of 5×10^5 CFU/ml. The trays were incubated aerobically overnight. Standard quality control strains were included with each run. Fractional inhibitory concentrations (FICs) were calculated as the MIC of drug A or B in combination/MIC of drug A or B alone, and the FIC index was obtained by adding the two FICs. FIC indices were interpreted as synergistic if the values were ≦0.5, additive or indifferent if the values were >0.5 to 4, and antagonistic if the values were >4.0.
(Broth dilution looks for growth in wells or tubes with falling amounts of substance.)

In another assay the test system is E. faecalis. Nature of the assay: MIC against E. faecalis. Conditions: for MIC: Enterococcus faecalis, Table 8, read-out: MIC. In kind it is cell-based. The method, then:
The MRS inhibitor 4 alone and in combination with mupirocin (mupirocin salt and 1:1 combination) were tested against a collection of Gram-positive pathogens.
(§1) MRSi compound 5 alone and in combination with mupirocin was tested recent clinical isolates of E. faecalis (n=28) and E. faecium (n=23). Both the acetate salt and mupirocinate salts of MRSi compound 5 maintained potent activity against vancomycin-susceptible and—resistant enterococci (Tables 8, 9, and 10).

The test system of a further assay is E. faecium. As to the kind of experiment: MIC against E. faecium. The class given is cell-based. The following applies: Enterococcus faecium, ATCC33667; Table 8; E. faecium ATCC 33667; read-out: MIC. The protocol:
as §1

Setting [1] is: all S. aureus isolates of Table 6.
Setting [2] is: recent clinical isolates of E. faecalis, ALL (28).

Read-outs that look alike come from different tables or passages of the source.

The MIC is the smallest concentration in the dilution series that meets the test's criterion for growth inhibition. A word on the MIC50: it is an inhibitory concentration at the 50% level, which refers to growth in some studies and to a panel of isolates in others.

Regarding Gentamicin, the MIC is 64 µg/mL with S. aureus (S. aureus 10-420 (LL Mup. Rest.)); >64 µg/mL with S. aureus (S. aureus 14-354 (LL Mup. Rest.)); >64 µg/mL with S. aureus (S. aureus 25-670 (HL Mup. Rest.)); 64 µg/mL with S. aureus (S. aureus 31-1334 (LL Mup Rest.)); 0.5 µg/mL in the assay on S. aureus (S. aureus 36-1298 (LL Mup. Rest.)); 0.25 µg/mL in the assay on S. aureus (S. aureus 87-2797 (HL Mup. Rest.)). Further, the MIC in the assay with S. aureus (S. aureus 87-2797 (Mup. Susc.)) stood at 0.25 µg/mL; in the assay with S. aureus (S. aureus 101-100 (Mup. Susc.)), 0.12 µg/mL; with S. aureus (S. aureus ATCC 43300 (ORSA)), 4 µg/mL; in the assay on S. aureus (S. aureus LZ1 (HL Mup rest.)), 0.5 µg/mL; in the assay on S. aureus (S. aureus LZ6 (HL Mup rest.)), 0.25 µg/mL; in the assay on S. aureus (S. aureus LZ8 (LL Mup. Rest.)) it was 64 µg/mL. Further, the MIC was 64 µg/mL with S. aureus (S. aureus LZ9); 64 µg/mL in the assay with S. aureus (S. aureus LZ10); 0.5 µg/mL with S. aureus (S. aureus Miles Hall); >64 µg/mL in the assay with S. aureus (S. aureus NRS1 (VISA)); 0.25 µg/mL in the assay on S. aureus (S. aureus NRS107 (HL Mup rest.)); 0.5 µg/mL in the assay with S. aureus (S. aureus Oxford). For the same compound, in the assay on S. aureus (all S. aureus strains of Table 1), the “MIC90” value is >64 µg/mL.

In the case of `Cc1onc(-c2ccccc2)c1C(=O)N[C@@H]1C(=O)N2[C@@H]1SC(C)(C)[C@@H]2C(=O)O` [Oxacillin], the MIC in the assay on S. aureus (Staphylococcus aureus, ATCC43300, S. aureus ATCC 43300 (ORSA), read-out: MIC) is 4 µg/mL; in the assay on S. aureus (Staphylococcus aureus, NRS 1 / VISA, S. aureus NRS1 (VISA), read-out: MIC) it was > 64 µg/mL; in the assay with S. aureus (Staphylococcus aureus, NRS 1 / VISA, VISA, S. aureus NRS1 (Mu50), read-out: MIC), > 64 µg/mL; in the assay with S. aureus (Staphylococcus aureus, NRS 3 / VISA, VISA, S. aureus NRS3 (HIP5827), read-out: MIC), > 64 µg/mL; in the assay on S. aureus (Staphylococcus aureus, NRS 4 / VISA, VISA, S. aureus NRS4 (HIP5836), read-out: MIC) it was 64 µg/mL; in the assay with S. aureus (Staphylococcus aureus, NRS 18 / VISA, VISA, S. aureus NRS18 (HIP06854), read-out: MIC), 2 µg/mL. Moreover, the MIC in the assay on S. aureus (Staphylococcus aureus, NRS 24 / VISA, VISA, S. aureus NRS24 (HIP09143), read-out: MIC) was 32 µg/mL; in the assay with S. aureus (Staphylococcus aureus, NRS 49 / VISA, VISA, S. aureus NRS49 (Korea), read-out: MIC), > 64 µg/mL; in the assay on S. aureus (Staphylococcus aureus, NRS54, Table 6, high-level mupirocin-resistant S. aureus NRS54, read-out: MIC), > 64 µg/mL; with S. aureus (Staphylococcus aureus, NRS 54 / VISA, VISA, S. aureus NRS54 (Brazil), read-out: MIC), > 64 µg/mL; in the assay with S. aureus (Staphylococcus aureus, NRS 56 / VISA, VISA, S. aureus NRS56 (Brazil), read-out: MIC), > 64 µg/mL; in the assay with S. aureus (Staphylococcus aureus, NRS107, S. aureus NRS107 (HL Mup rest.), read-out: MIC) it was 0.12 µg/mL. For the same compound, the MIC is 0.12 µg/mL in the assay on S. aureus (Staphylococcus aureus, NRS107, Table 6, high-level mupirocin-resistant S. aureus NRS107, read-out: MIC); 64 µg/mL with S. aureus (Staphylococcus aureus, NRS127, Table 6, low-level mupirocin-resistant S. aureus NRS127, read-out: MIC); 16 µg/mL with S. aureus (Staphylococcus aureus, S. aureus 10-420 (LL Mup. Rest.), read-out: MIC); > 64 µg/mL with S. aureus (Staphylococcus aureus, S. aureus 14-354 (LL Mup. Rest.), read-out: MIC); > 64 µg/mL in the assay on S. aureus (Staphylococcus aureus, S. aureus 25-670 (HL Mup. Rest.), read-out: MIC); > 64 µg/mL in the assay on S. aureus (Staphylococcus aureus, S. aureus 31-1334 (LL Mup Rest.), read-out: MIC). Besides, the MIC in the assay on S. aureus (Staphylococcus aureus, S. aureus 36-1298 (LL Mup. Rest.), read-out: MIC) was 0.25 µg/mL; in the assay on S. aureus (Staphylococcus aureus, S. aureus 87-2797 (HL Mup. Rest.), read-out: MIC), > 64 µg/mL; with S. aureus (Staphylococcus aureus, S. aureus 87-2797 (Mup. Susc.), read-out: MIC), > 64 µg/mL; in the assay on S. aureus (Staphylococcus aureus, S. aureus 101-100 (Mup. Susc.), read-out: MIC), 16 µg/mL; with S. aureus (Staphylococcus aureus, S. aureus LZ1 (HL Mup rest.), read-out: MIC), > 64 µg/mL; with S. aureus (Staphylococcus aureus, S. aureus LZ6 (HL Mup rest.), read-out: MIC), > 64 µg/mL. For the same compound, the minimal inhibitory concentration (MIC) is > 64 µg/mL with S. aureus (Staphylococcus aureus, S. aureus LZ8 (LL Mup. Rest.), read-out: MIC); > 64 µg/mL in the assay on S. aureus (Staphylococcus aureus, S. aureus LZ9, read-out: MIC); > 64 µg/mL with S. aureus (Staphylococcus aureus, S. aureus LZ10, read-out: MIC); 0.25 µg/mL in the assay on S. aureus (Staphylococcus aureus, S. aureus Miles Hall, read-out: MIC); 0.015 µg/mL in the assay with S. aureus (Staphylococcus aureus, S. aureus Oxford, read-out: MIC); 8 µg/mL with S. aureus (Staphylococcus aureus, Table 6, S. aureus (mupirocin-susceptible) 010-100, read-out: MIC). Moreover, the MIC in the assay on S. aureus (Staphylococcus aureus, Table 6, S. aureus (mupirocin-susceptible) 087-2789, read-out: MIC) was > 64 µg/mL; in the assay with S. aureus (Staphylococcus aureus, Table 6, S. aureus (mupirocin-susceptible) LZ9, read-out: MIC), > 64 µg/mL; in the assay on S. aureus (Staphylococcus aureus, Table 6, S. aureus (mupirocin-susceptible) LZ10, read-out: MIC), > 64 µg/mL; in the assay with S. aureus (Staphylococcus aureus, Table 6, high-level mupirocin-resistant S. aureus 010-420, read-out: MIC), 8 µg/mL; in the assay on S. aureus (Staphylococcus aureus, Table 6, high-level mupirocin-resistant S. aureus 25-670, read-out: MIC), > 64 µg/mL; in the assay with S. aureus (Staphylococcus aureus, Table 6, high-level mupirocin-resistant S. aureus 87-2797, read-out: MIC) it was > 64 µg/mL. The MIC with S. aureus (Staphylococcus aureus, Table 6, high-level mupirocin-resistant S. aureus 1079101, read-out: MIC) is 0.25 µg/mL; in the assay with S. aureus (Staphylococcus aureus, Table 6, high-level mupirocin-resistant S. aureus LZ1, read-out: MIC) it was > 64 µg/mL; in the assay with S. aureus (Staphylococcus aureus, Table 6, high-level mupirocin-resistant S. aureus LZ6, read-out: MIC), > 64 µg/mL; with S. aureus (Staphylococcus aureus, Table 6, low-level mupirocin-resistant S. aureus 014-354, read-out: MIC), > 64 µg/mL; with S. aureus (Staphylococcus aureus, Table 6, low-level mupirocin-resistant S. aureus 031-1334, read-out: MIC), 64 µg/mL; in the assay with S. aureus (Staphylococcus aureus, Table 6, low-level mupirocin-resistant S. aureus 036-1298, read-out: MIC) it was 8 µg/mL. In addition, the minimum inhibitory concentration (MIC) is 8 µg/mL with S. aureus (Staphylococcus aureus, Table 6, low-level mupirocin-resistant S. aureus 1081148, read-out: MIC); > 64 µg/mL in the assay with S. aureus (Staphylococcus aureus, Table 6, low-level mupirocin-resistant S. aureus LZ8, read-out: MIC); 0.12 µg/mL in the assay on S. aureus (Staphylococcus aureus, Table 6, low-level mupirocin-resistant S. aureus Miles Hall, read-out: MIC). In addition, the MIC50 with S. aureus (Staphylococcus aureus, all S. aureus isolates of Table 6, read-out: MIC50) is > 64 µg/mL. In addition, the MIC90 in the assay with S. aureus (Staphylococcus aureus, all S. aureus isolates of Table 6, read-out: MIC90) is > 64 µg/mL; in the assay with S. aureus (Staphylococcus aureus, all S. aureus strains of Table 1, read-out: MIC 90), > 64 µg/mL.

Regarding `CC1(C)S[C@@H]2[C@H](NC(=O)[C@H](N)c3ccccc3)C(=O)N2[C@H]1C(=O)O` [Ampicillin, reference compound], the MIC is 0.5 µg/mL in the assay with E. faecalis (ATCC 51299 / VRE, E. faecalis ATCC 51299 (VRE)); 0.5 µg/mL in the assay with E. faecalis (E. faecalis 1); 0.5 µg/mL in the assay with E. faecalis (E. faecalis 7); 1 µg/mL with E. faecium.

Consider “N-(4-bromo-5-(1-fluorovinyl)-3-methylthiophen-2-ylmethyl)-N′(1H-quinolin-4-one)propane-1,3-diamine Mupirocinate [MRSi Cmpd 5 mupirocinate]”, for which, in the assay on S. aureus (setting [1]), the MIC50 is 0.12 µg/mL and the MIC90 stood at 1 µg/mL.

In the case of `C=C(F)c1sc(CNCCCNc2cc(=O)c3ccccc3[nH]2)c(C)c1Br` [MRSi Cmpd 5 mupirocinate, N-(4-bromo-5-(1-fluorovinyl)-3-methylthiophen-2-ylmethyl)-N′(1H-quinolin-4-one)propane-1,3-diamine Mupirocinate], the MIC90 was 0.03 µg/mL with E. faecalis (E. faecalis, Van-R(11)); 0.03 µg/mL in the assay with E. faecalis (E. faecalis, Van-S (16)); 0.03 µg/mL in the assay on E. faecalis (setting [2]). For the same compound, the Mode (MIC) in the assay on E. faecalis (setting [2]) is 0.03 µg/mL.
